Data set [1] deals with DOCA-salt hypertensive rats. As to the kind of experiment: intravenous infusion in DOCA-salt hypertensive rats. The format is in vivo, rat. From the text:
(§1) Intravenous infusion of this species of this invention in the DOCA-salt hypertensive and spontaneously hypertensive rats reduced blood pressure and heart rate.

In data set [2] the test system is spontaneously hypertensive rats. As to the kind of experiment: intravenous infusion in spontaneously hypertensive rats. The data set is classed as in vivo, rat.
From the text: as §1

Data set [3] deals with cardio-accelerator nerve. As to the kind of experiment: cardio-accelerator nerve preparation in vivo in the dog.
In data set [4] the target is T1, D2 -receptors (Oryctolagus cuniculus, UniProt G1T1Q0).
T1 construct: In the perfused rabbit ear artery test; from tissue; host or cells: perfused rabbit ear artery (receptors on sympathetic nerve terminals)
As to the kind of experiment: perfused rabbit ear artery test.

Data set [5] can be described thus: absorption from the gastrointestinal tract of rats. The note with it: oral, compared with the 7-hydroxy congener. The data set is classed as in vivo, rat.
Data set [6] has as its system conscious DOCA salt hypertensive rats. As to the kind of experiment: oral dosing in conscious DOCA salt hypertensive rats. The format is in vivo, rat. The note with it: oral doses of 10 mg/kg.
Data set [7] relates to perfused hind limb. As to the kind of experiment: perfused hind limb preparation in vivo in the dog.
Data set [8] concerns presynaptic α-dopaminergic receptors (D2 -receptors). As to the kind of experiment: D2-agonist selectivity (general statement). To be noted: peripheral. From the text: Otherwise speaking, the main focus of action is at the presynaptic α-dopaminergic receptors which may also be called "D2 -receptors." Activation of the D2 -receptors on the sympathetic nerve terminals inhibits the release of norepinephrine, thereby, promoting vasodilation, among other beneficial cardiovascular actions and decreasing sympathetic side-effects caused by norepinephrine release in certain abnormal cardiovascular conditions.

T1 sequence (G1T1Q0 1-443): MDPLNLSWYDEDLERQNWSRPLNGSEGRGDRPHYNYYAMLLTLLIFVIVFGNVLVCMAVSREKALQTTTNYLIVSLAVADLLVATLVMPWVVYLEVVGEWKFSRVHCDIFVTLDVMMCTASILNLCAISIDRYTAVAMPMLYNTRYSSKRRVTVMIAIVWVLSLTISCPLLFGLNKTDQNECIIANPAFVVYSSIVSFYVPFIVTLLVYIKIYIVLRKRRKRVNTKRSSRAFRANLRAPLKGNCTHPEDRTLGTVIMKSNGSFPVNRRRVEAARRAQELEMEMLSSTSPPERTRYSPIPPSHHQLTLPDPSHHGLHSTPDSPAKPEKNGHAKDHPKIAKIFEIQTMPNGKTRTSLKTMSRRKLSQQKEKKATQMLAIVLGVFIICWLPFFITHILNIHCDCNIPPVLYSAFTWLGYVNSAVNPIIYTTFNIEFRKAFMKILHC

As for `CCCN(CCC)CCc1cccc2c1CC(=O)N2.Cl` [4-(2-di-n-propylaminoethyl)-2(3H)-indolone hydrochloride], in data set [1], the blood pressure result is recorded as “reduced” and the heart rate result was “reduced”. Besides, in data set [2], the blood pressure entry is reported as “reduced” and the heart rate entry is “reduced”. In addition, the activity in vivo result in data set [3] is “active”. Also, the EC50 in data set [4] stood at 72 nM. The “absorption from the gastrointestinal tract” value in data set [5] is “more readily absorbed”. Besides, the anti-hypertensive effect result in data set [6] is recorded as “demonstrated an anti-hypertensive effect”. Also, in data set [7], the activity in vivo entry is on record as “active” and the tachyphylaxis entry is “did not cause tachyphylaxis”. In data set [8], the D2-agonist selectivity entry was “selective peripheral D2 -agonists”.
